The source of these data is article PMC3500847 (ChemMedChem, 2012).

The test system of series [1] is S. aureus ATCC 33591 (MRSA). The format is cell-based, Staphylococcus aureus.
The test system of series [2] is S. aureus ATCC 700699 (Mu50, VRSA). The format is cell-based, Staphylococcus aureus.
The next series concerns HepG2 cancer cell line. Type of series: cell-based, human.
Series [3] concerns human liver embryonic cell line WRL 68. The format is cell-based.
For series [4], the system named is variety of fungi, including Candida albicans and Cryptococcus neoformans, and Gram-positive bacteria such as S. aureus. The conditions noted are these: range over fungi and Gram-positive bacteria; cited from earlier work.

Bridge positions count the residues as written; N and C are the ends. Square brackets hold non-standard residues; d marks the D form. Peptide text beside a SMILES is read from it. d(aThr) = C[C@@H](O)[C@@H](N)C(=O)O; 12Ado = NCCCCCCCCCCCC(=O)O

One may read the MIC as the least concentration at which growth counts as inhibited. `CC(C)[C@@H]1NC(=O)[C@@H](C(C)C)NC(=O)[C@@H](NC(=O)CCCCCCCCCCCN)[C@@H](C)OC(=O)[C@@H](C)NC(=O)[C@@H](CC(N)=O)NC(=O)[C@@H]([C@H](C)O)NC1=O` [compound 3] (H-[12Ado]T[dV]V[dT][dN][dA]; ester 2-C): the minimal inhibitory concentration (MIC) in series [1] and in series [2] was more than 128 µg/mL throughout.

For the compound `CC(=O)N[C@@H]1C(=O)N[C@H](C(C)C)C(=O)N[C@@H](C(C)C)C(=O)N[C@H]([C@H](C)O)C(=O)N[C@H](CC(N)=O)C(=O)N[C@H](C)C(=O)O[C@@H]1C` [compound 1] (Ac-T[dV]V[dT][dN][dA]; ester 1-C), the minimum inhibitory concentration (MIC) in series [1] and in series [2] was more than 128 µg/mL in each case. Further, the “cytotoxicity” value (in the series on HepG2 cancer cell line; in series [3]) was “did not show appreciable cytotoxicity” throughout.

Regarding `CC(=O)N[C@@H]1C(=O)N[C@H](C(C)C)C(=O)N[C@@H](C(C)C)C(=O)N[C@H]([C@@H](C)O)C(=O)N[C@H](CC(N)=O)C(=O)N[C@H](C)C(=O)O[C@@H]1C` [compound 2] (Ac-T[dV]V[d(aThr)][dN][dA]; ester 1-C), the minimal inhibitory concentration (MIC) in series [1] and in series [2] was more than 128 µg/mL each time.

As to `CC(C)[C@@H]1NC(=O)[C@@H](C(C)C)NC(=O)[C@@H](NC(=O)CCCCCCCCCCCN)[C@@H](C)OC(=O)[C@@H](C)NC(=O)[C@@H](CC(N)=O)NC(=O)[C@@H]([C@@H](C)O)NC1=O` [compound 4] (H-[12Ado]T[dV]V[d(aThr)][dN][dA]; ester 2-C), the minimal inhibitory concentration (MIC) in series [1] and in series [2] was more than 128 µg/mL each time.

Consider fusaricidin A, for which, in series [4], the MICs is 0.78 to 3.12 µg/mL.
